For test [1], the system named is recycling endosomes of MCF-7/ADR cells. Kind of test: In vitro acidification of recycling endosomes (FITC-transferrin). The test is classed as biochemical. On the procedure:
Acidification from the recycling endosomal fraction was monitored by first incubating cells with FITC-transferrin for 30 minutes before lysis and isolation of microsomes. Acidification was monitored by excitation of the FITC fluorophore at 450 and 488 nm and measuring λem =520 nm as described previously.
To specifically examine the acidification of the endosomes in vitro, in vitro acidification was assayed using FITC-transferrin which is constrained by the transferrin receptor to the endocytic pathway. MCF-7/ADR cells were incubated with FITC-transferrin before lysis and isolation of microsomes. Since this assay is not based on the redistribution of probes, it further serves as verification that AO quenching resulted from vesicular acidification. Upon addition of ATP, there was a decrease in the ratio of the FITC-emission (FIG. 1C). This signal was the consequence of acidification, since it was reversed upon the addition of nigericin.

Test [2] concerns yeast vacuoles. Kind of test: Acidification of yeast vacuoles (acridine orange). In kind it is biochemical, S. cerevisiae. On the procedure: Vacuoles from S. cerevisiae were prepared from the protease deficient strain BJ2407 (Yeast Genetic Stock Center, University of California, Berkeley) by sequential floatation through 12% and 8% Ficoll 400 cushion as described previously [Roberts et al., Methods Enzymol, 194:644-661 (1991)] with the single modification that 1× protease inhibitor mix and 1 mM DTT was included in each step. […] Acidification was measured using AO as described above. For acidification in chloride-free solution, gluconate or glutamate was used in vesicle buffer instead of chloride.
ATP (1.5 mM) was added at 50 sec to initiate acidification and at 400 sec nigericin (1 μM) was added to dissipate pH gradients.

The subject of test [3] is yeast vATPase. Kind of test: Bafilomycin-inhibitable ATPase activity of yeast vATPase. The test is classed as biochemical, S. cerevisiae. Conditions: 5 μM, chloride and gluconate buffer. On the procedure: Vacuoles were diluted in KCl or K-gluconate vesicle buffer. […] Each of the four resulting samples was again split into two and either carrier or […] bafilomycin A1 was added. Next, 2 mM Tris-ATP was added to each sample and the vacuoles were incubated at 30° C. for 15 minutes. To measure the phosphate concentration from ATP hydrolysis, equal volume of Taussky-Shorr Reagent (1% w/v ainmoniummolybdate (w/v), 2.7% v/v sulfuric acid, and 5% w/v ferrous sulfate hexahydrate) was added and the samples were developed for 15 minutes. The A660 was measured (Spectronic Genesys 2) which is linearly related to phosphate concentration. The bafilomycin inlubtable ATPase activity was taken as the difference between the ATPase activity of each condition with or without 100 nM bafilomycin A1.
Replacing chloride with gluconate decreased the bafilomycin-inhibitable ATPase activity (FIG. 3B), further confirming that chloride provided the counter-ion transport to dissipate the Vm.

Test [4] in a line: Liposome chloride concentration (lucigenin).

As for `CC/C(=C(\c1ccccc1)c1ccc(OCCN(C)C)cc1)c1ccccc1` [tamoxifen], the “effect on ATP-dependent acidification of recycling endosomes” value is on record as “partially reversed the acidification” in test [1] (2.5 μM added after ATP) and “farher reduced” in test [1] (concentration raised an additional 2.5 μM). The “effect of addition to pre-acidified vacuoles” value in test [2] (added at 250 sec, tamoxifen 2 μM, ammonium 1 mM) is reported as “rapid alkaline step followed by slower alkalinization”. In addition, the “concentration giving complete inhibition of acidification” value in test [2] (pre-equilibrated, 1.5 mM ATP, KCl buffer) stood at 8 µM. In test [2] (pre-equilibrated, tamoxifen 2 μM or 8 μM, ammonium chloride 1 mM), the “inhibition of vacuole acidification” value was “dose dependent inhibition of acidification”. In addition, in test [3], the “effect on bafilomycin-inhibitable ATPase activity” value is “increase of ATPase activity”. Also, in test [4] (4 μM tamoxifen with 1 μM valinomycin, 50 mM KCl), the “rate of chloride influx in the presence of valinomycin” value is listed as “increased the rate of chloride influx”. In addition, the “rate of chloride influx into liposomes” value in test [4] (after addition of 50 mM KCl, tamoxifen 2, 4, 8 μM, valinomycin 1 μM) was “dose dependent increase in the rate of chloride influx”.

Values taken from patent US6204067A, “Methods of identifying modulators of the estrogen receptor” (Board of Trustees Operating Michigan State University, priority 1999, dated 2001).
